Where two headings read alike, the source gives them in different places.
What was measured:
[1] = Placebo-controlled ascending single-dose study in healthy subjects (CAT001); format: in vivo, human; settings: for Cmax / half-life / AUC / Tmax / AUC(0-t): human, in vivo, oral; for AUC(0-t): read-out: AUC (0-24)
Description: FIG. 21. […] Subjects were administered from 1 mg to 800 mg of VGX1027.
A placebo-controlled, ascending single-dose study was performed to evaluate the safety and pharmacokinetics of VGX-1027 in healthy human subjects. Study was performed upon 7 groups of subjects: group 1: 1 mg of VGX-1027 after fasting; group 2: 10 mg of VGX-1027 after fasting; group 3: 100 mg of VGX-1027 after fasting; group 4: 200 mg of VGX-1027 after fasting; group 5: 400 mg of VGX-1027 after fasting; group 6: 800 mg of VGX-1027 after fasting; and group 7: 100 mg of VGX-1027 after fasting, and after fed.

[2] = system: Peritoneal macrophages (PM); assay: Ex vivo cytokine synthesis by PM from treated mice; format: cell-based
Description: These experiments were carried out to explore if intraperitoneal (i.p.) or oral administration (p.o.) in mice with VGX-1027 could influence the proliferative response of SMNC and the production of IL-1β, IL-10, TNF-α, IFN-γ and MIF from isolated PM and SMNC. PM and SMNC isolated from mice treated in vivo with VGX-1027 for 7 consecutive days intraperitoneally (0.5 mg/mouse), or orally (2.5 mg/mouse), or isolated from control animals that received VGX-1027 vehicle (Na2HPO4/H2O), or were without any treatment. 24 h after the last VGX-1027 treatment, PM and SMNC were collected for further in vitro stimulation and analysis.

Purified CD4 T cells = assay: Th17 T cell development from purified CD4 T cells; format: cell-based; settings: 10 mM
Description: Purified CD4 T cells (CD3^+ CD4^+ CD45RA^+ CD25^− HLA−DR^−) were incubated with 10 μg/ml of IL-2, 10 ng/mL of IL-1β, 10 ng/ml of IL-23, 1 ug/ml of anti-IL-4, 1 ug/mL of anti-IFNγ and anti-CD3/CD28 activation beads at a ratio of 1 bead per cell plus TGF-β (1 ng/mL). On day 6, the cells were incubated in the presence of 50 ng/ml of PMA and 500 ng/ml of ionomycin for 5 hours. The cells were analyzed for intracellular staining of IL-17A and IFNγ. (A) FACS analysis of CD4+ and IL-17+ cells with the percentage shown in the upper right quadrant. (B) Mean Fluorescent Intensity (MFI) of IL-17+ T cells. (C) Concentration of IL-17 in the media. VGX-1027 concentration was 10 mM.
Although inhibition of Th17-promoting cytokine production from DCs is likely to contribute to the decrease of Th17 T cell development, the potential limitation with this mechanism is that other cells may be compensating for the production of Th17-promoting cytokines. Therefore, the direct effect of VGX-1027 was tested on the differentiation of naïve CD4 T cells into Th17 T cells. In vitro generation of Th17 T cells requires TGF-β, IL-1β, IL-6, and either IL-21 or IL-23. Th17 T cells was assessed with purified CD4 T cells (CD3+ CD4+ CD45RA+ CD25− HLA−DR−) with or without VGX-1027.

STAT3 = assay: IL-6 induced STAT3 phosphorylation in CD4+ T cells (Western blot); format: cell-based; settings: IL-6 20 ng/ml, 10 uM
Description: FIG. 17. Western blot (A) and relative densitometric analysis (B) of the levels of phospho-STAT3 in CD4+ T cells after stimulation with IL-6.
In vitro T-cell treatment: Naive, sorted CD4+ T cells were obtained from the University of Pennsylvania School of Medicine, Immunology Clinical Core, cultured in vitro with IL-6 (20 ng/ml) in the presence or absence of VGX1027 (10 uM) for 0, 30 min, 1 hr, 2 hrs and 5 hrs. At the end of the incubation period, cells were lysed for 30 min at 4° C. by using the Nonidet P-40 lysis buffer (Invitrogen) supplemented with a phosphatase inhibitor mixture (PhosSTOP) and a protease inhibitor mixture (Complete) as directed by the manufacturer (Roche Applied Science). Lysates were collected and spun at 10,000 rpm for 5 min at 4° C., and then, 50 ug of proteins were mixed with 2× sample buffer (Invitrogen) for subsequent 4-12% SDS-PAGE electrophoresis. Afterward, proteins were transferred to nitrocellulose using the iBlot Dry Blotting System (Invitrogen), immunodetection was performed with the SNAP i.d. Protein Detection System (Millipore) using specific p-STAT3 and STAT3 monoclonal antibodies (Cell Signaling), and the expressed proteins were visualized with HRP-conjugated goat antimouse IgG using an ECL detection system (Amersham Biosciences, Piscataway, N.J.).

SEB-induced lethal shock = system: SEB-induced lethal shock; parameters: species or system mice; settings: mouse, in vivo
[3] = 1 mg, single dose 1 mg, fasted, geometric mean
[4] = 10 mg, single dose 10 mg, fasted, geometric mean
[5] = 100 mg, Fasted vs Fed: 100 mg fasted, geometric mean
[6] = 100 mg, Fasted vs Fed: 100 mg fed, geometric mean
[7] = 100 mg, single dose 100 mg, fasted, geometric mean
[8] = 200 mg, single dose 200 mg, fasted, geometric mean
[9] = 400 mg, single dose 400 mg, fasted, geometric mean
[10] = 800 mg, single dose 800 mg, fasted, geometric mean

Q: For O=C(O)CC1CC(c2ccccc2)=NO1 (centres unmarked) [VGX-1027, 3-phenyl-4,5-dihydro-5-isoxazoleacetic acid], which “Grade 3 or 4 AEs” value ([1]; human studies) is on record?
A: No Grade 3 or 4 AEs were reported

Q: And the SAEs ([1]; human studies)?
A: no SAEs were reported

Q: What about the Cmax [1, 3] of the same compound?
A: 50 ng/mL

Q: And the half-life [1, 3]?
A: 7.2 h

Q: And the AUC ([1]; 1 mg, single dose 1 mg, fasted, geometric mean, read-out: AUC)?
A: 460 ng·h/mL

Q: And the Tmax ([1]; 1 mg, single dose 1 mg, fasted, median)?
A: 1 h

Q: What about the Cmax [1, 4] of the same compound?
A: 1100 ng/mL

Q: And the half-life [1, 4]?
A: 4.9 h

Q: What about the AUC ([1]; 10 mg, single dose 10 mg, fasted, geometric mean, read-out: AUC) of the same compound?
A: 4430 ng·h/mL

Q: And the Tmax ([1]; 10 mg, single dose 10 mg, fasted, median)?
A: 0.5 h

Q: What about the Cmax [1, 5] of the same compound?
A: 6500 ng/mL

Q: And the half-life [1, 5]?
A: 5.9 h

Q: What about the AUC ([1]; 100 mg, Fasted vs Fed: 100 mg fasted, geometric mean, read-out: AUC) of the same compound?
A: 37800 ng·h/mL

Q: What about the Tmax ([1]; 100 mg, Fasted vs Fed: 100 mg fasted, median) of the same compound?
A: 1.25 h

Q: What about the Cmax [1, 6] of the same compound?
A: 4600 ng/mL

Q: And the half-life [1, 6]?
A: 6.3 h

Q: What about the AUC ([1]; 100 mg, Fasted vs Fed: 100 mg fed, geometric mean, read-out: AUC) of the same compound?
A: 55700 ng·h/mL

Q: And the Tmax ([1]; 100 mg, Fasted vs Fed: 100 mg fed, median)?
A: 3.5 h

Q: And the Tmax ([1]; 100 mg, Single Dose (CAT001) 100 mg)?
A: 1.8 h

Q: What about the Cmax ([1]; 100 mg, Single Dose (CAT001) 100 mg, Geo Mean) of the same compound?
A: 9070 ng/mL

Q: What about the Cmax [1, 7] of the same compound?
A: 9100 ng/mL

Q: What about the half-life [1, 7] of the same compound?
A: 8.8 h

Q: What about the AUC ([1]; 100 mg, single dose 100 mg, fasted, geometric mean, read-out: AUC) of the same compound?
A: 74600 ng·h/mL

Q: What about the Tmax ([1]; 100 mg, single dose 100 mg, fasted, median) of the same compound?
A: 1.75 h

Q: And the Tmax ([1]; 200 mg, Single Dose (CAT001) 200 mg)?
A: 1.5 h

Q: What about the Cmax ([1]; 200 mg, Single Dose (CAT001) 200 mg, Geo Mean) of the same compound?
A: 15700 ng/mL

Q: And the AUC ([1]; 200 mg, Single Dose (CAT001) 200 mg, Geo Mean, read-out: AUC (AUC to 12 hours))?
A: 78500 ng·h/mL

Q: What about the Cmax [1, 8] of the same compound?
A: 15700 ng/mL

Q: What about the half-life [1, 8] of the same compound?
A: 7.7 h

Q: What about the AUC ([1]; 200 mg, single dose 200 mg, fasted, geometric mean, read-out: AUC) of the same compound?
A: 111000 ng·h/mL

Q: And the Tmax ([1]; 200 mg, single dose 200 mg, fasted, median)?
A: 1.5 h

Q: And the Cmax [1, 9]?
A: 23800 ng/mL

Q: What about the half-life [1, 9] of the same compound?
A: 6.7 h

Q: What about the AUC ([1]; 400 mg, single dose 400 mg, fasted, geometric mean, read-out: AUC) of the same compound?
A: 155000 ng·h/mL

Q: And the Tmax ([1]; 400 mg, single dose 400 mg, fasted, median)?
A: 1.25 h

Q: What about the Cmax [1, 10] of the same compound?
A: 43200 ng/mL

Q: What about the half-life [1, 10] of the same compound?
A: 7.9 h

Q: What about the AUC ([1]; 800 mg, single dose 800 mg, fasted, geometric mean, read-out: AUC) of the same compound?
A: 330000 ng·h/mL

Q: And the Tmax ([1]; 800 mg, single dose 800 mg, fasted, median)?
A: 2 h

Q: What about the AUC(0-t) ([1]; Single Dose (CAT001) 100 mg, Geo Mean) of the same compound?
A: 66800 ng·h/mL

Q: What about the AUC(0-t) ([1]; Single Dose (CAT001) 200 mg, Geo Mean) of the same compound?
A: 98400 ng·h/mL

Q: And the tolerability in humans ([1]; oral pill)?
A: safe and well-tolerated

Q: And the dosing toxicities ([1]; up to 800 mg QD single dose)?
A: No dosing toxicities were observed

Q: And the IL-10 synthesis ([2]; mice treated 7 days)?
A: impaired synthesis

Q: What about the TNF-α synthesis ([2]; mice treated 7 days) of the same compound?
A: impaired synthesis

Q: And the “IL-1 β synthesis” value ([2]; mice treated 7 days i.p. 0.5 mg/mouse or orally 2.5 mg/mouse)?
A: impaired synthesis

Q: What about the MIF expression ([2]; mitogenic stimulation) of the same compound?
A: normal pattern

Q: What about the “IL-17 expressed in a Th17 T cell (MFI)” value (Purified CD4 T cells) of the same compound?
A: decrease

Q: And the “IL-17 in the culture media” value (Purified CD4 T cells)?
A: decrease

Q: And the “magnitude of STAT3 phosphorilation” value (STAT3)?
A: overall reduction

Q: What about the “time of maximum STAT3 activation after IL-6” value (STAT3) of the same compound?
A: 1 h

Q: And the “symptomology associated with SEB challenge” value (SEB-induced lethal shock)?
A: attenuated

Q: And the survival (SEB-induced lethal shock; ip)?
A: 50%

— patent US20150064221A1, “COMPOUNDS HAVING IMMUNOMUDULATOR ACTIVITY” (priority 2012, published 2015)
